Consider 30 compounds from patent publication US5389661A, “Imidazole and 1,2,4-triazole derivatives with angiotensin II antagonist properties” (Warner-Lambert Company, priority 1994, dated 1995).

The structures appear in SMILES notation.

The target of this test is T1, angiotensin II receptor (rat liver membranes) (Rattus norvegicus, UniProt P25095).
T1 construct: from tissue; host or cells: rat liver membranes
T1 sequence (P25095 1-359): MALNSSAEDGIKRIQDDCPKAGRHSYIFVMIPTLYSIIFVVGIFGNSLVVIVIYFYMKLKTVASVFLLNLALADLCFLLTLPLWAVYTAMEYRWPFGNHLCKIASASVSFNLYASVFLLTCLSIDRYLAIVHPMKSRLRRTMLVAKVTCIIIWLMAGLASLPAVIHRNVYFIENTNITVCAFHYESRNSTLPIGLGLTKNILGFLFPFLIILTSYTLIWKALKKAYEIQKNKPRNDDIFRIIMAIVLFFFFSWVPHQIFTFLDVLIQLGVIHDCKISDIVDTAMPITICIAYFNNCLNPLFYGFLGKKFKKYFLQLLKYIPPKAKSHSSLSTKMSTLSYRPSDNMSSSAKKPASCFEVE
Put plainly: RBAT1, Receptor Binding of Angiotensin II: inhibition of tritiated angiotensin II binding to rat liver membranes. To be noted: in vitro. The protocol:
The effectiveness of the compounds of the instant invention is determined by a test (RBAT1) entitled Receptor Binding of Angiotensin II.
On to `CCCc1ncc(/C=C2\C(=O)N(C(CCC)C(=O)OCC)c3cccc(C)c32)n1Cc1ccc(C(=O)OC)cc1` (racemic) [Example 4I, Ethyl (Z)-(±)-2,3,dihydro-3-[[3-[[4-(methoxycarbonylphenyl]methyl]-2-propyl-3H-imidazol-4-yl]methylene]-4-methyl-2-oxo-α-propyl-1H-indole-1-acetat], for which the IC50 amounted to 300 nM. On to `CCCCc1ncc(CC2C(=O)Nc3ccccc32)n1Cc1ccc(C(=O)OC)cc1` (racemic) [Example 10, Benzoic acid, 4-[[2-butyl-5-[(2,3-dihydro-2-oxo-1H-indol-3-yl)methyl]-1H-imidazol-1-yl]methyl]-, methyl ester, (±)], for which the IC50 was found to be 53 nM.

In turn, `CCCc1ncc(C=C2C(=O)N(C)c3ccccc32)n1Cc1ccc(C(=O)OC)cc1` [Example 1D, Methyl 4-[[2-propyl-5-[(1,2-dihydro-1-methyl-2-oxo-3H-indol-3-ylidene)methyl]-1H-imidazol-1-yl]methyl]benzoate] showed an IC50 of 75 nM.

Consider `CCCc1ncc(C=C2C(=O)N(C(=O)NC)c3ccccc32)n1Cc1ccc(C(=O)OC)cc1` [Example 2B, Methyl 4-[[(2-propyl-5-[1,2-dihydro-1-(methylaminocarbonyl)-2-oxo-3H-indol-3-ylidene]methyl]-1H-imidazol-1-yl]methyl benzoate], for which the IC50 turned out to be 610 nM. Consider `CCCCc1ncc(C=C2C(=O)N(O)c3ccccc32)n1Cc1ccc(C(=O)OC)cc1` [Example 2C], for which the IC50 stood at 201 nM.

`CCCc1nc(-n2cccc2)c(/C=C2/C(=O)Nc3ccccc32)n1Cc1ccc(C(=O)O)cc1` [Example 2D, (E)-4-[[5-[(1,2-dihydro-2-oxo-3H-indol-3-ylideny)methyl]-2-propyl-4-(1H-pyrrol-1-yl)-1H-imidazol-1-yl]methyl]benzoic acid] gave an IC50 of 86 nM. With `CCCc1ncc(/C=C2\C(=O)N(C(C)C)c3ccccc32)n1Cc1ccc(C(=O)OC)cc1` [Example 2F, Benzoic acid, 4-[[5-[[2,3-dihydro-1-(1-methylethyl)-2-oxo-1H-indol-3-ylidene]methyl]. -2-propyl-1H-imidazol-1-yl]methyl]-, methyl ester, (Z)], the IC50 came to 67 nM. The same measure for `CCCc1ncc(C=C2C(=O)N(CCC)c3ccccc32)n1Cc1ccc(C(=O)OC)cc1` [Example 2G, Methyl 4-[[5-[(1,2-dihydro-2-oxo-1-propyl-3H-indol-3-ylidenyl)methyl]-2-propyl-1H-imidazol-1-yl]methyl]benzoate]: 746 nM; for `CCCCc1ncc(C=C2C(=O)Nc3ccccc32)n1Cc1ccc(C(=O)O)cc1` [Example 3, 4-[[2-Butyl-5-[(1,12-dihydro-2-oxo-3H-indol-3-ylidene)methyl]-1H-imidazol-1-yl]methyl]benzoic acid]: 170 nM; for `CCCCc1nc(Cl)c(/C=C2/C(=O)Nc3ccccc32)n1Cc1ccc(C(=O)O)cc1` [Example 3A, (E)-4-[[2-Butyl-4-chloro-5-[(1,2-dihydro-2-oxo-3H-indol-3-ylidene)]-1H-imidazol-1-yl]methyl]benzoic acid]: 140 nM. On to `CCCCc1ncc(C=C2C(=O)Nc3c(OC)cccc32)n1Cc1ccc(C(=O)O)cc1` [Example 3B, 4-[[2-Butyl-5-[(1,2-dihydro-7-methoxy-2-oxo-3H-indol-3-ylidene)methyl]-1H-imidazol-1-yl]methyl]benzoic acid], for which the IC50 is 120 nM. Compound `CCCCc1ncc(C=C2C(=O)N(CC(=O)O)c3ccccc32)n1Cc1ccc(C(=O)O)cc1` [Example 3C, 3-[[2-Butyl-1-[(4-carboxyphenyl)methyl]-1H-imidazol-5-yl]methylene]-2,3-dihydro-2-oxo-1H-indole-1-acetic acid] came in with an IC50 of 22 nM. For `CCCCc1ncc(C=C2C(=O)N(O)c3ccccc32)n1Cc1ccc(C(=O)O)cc1` [Example 3F], the IC50 was determined as 123 nM.

On to `CCCCc1ncc(/C=C2/C(=O)N(CCC(=O)O)c3ccccc32)n1Cc1ccc(C(=O)O)cc1` [Example 3G, 1H-Indole-1-propanoic acid, 3-[[2-butyl-1-[(4-carboxyphenyl)methyl]-1H-imidazol-5-yl]methylene]-2,3-dihydro-2-oxo -, (E)], for which the IC50 is 20 nM. With `CCCCc1ncc(C=C2C(=O)N(CCCC)c3ccccc32)n1Cc1ccc(C(=O)O)cc1Cl` [Example 3H, 4-[[2-butyl-5-[(1-butyl-1,2-dihydro-2-oxo-3H-indol-3-ylidenyl)methyl]-1H-imidazol-1-yl]methyl]-3 chlorobenzoic acid] the figure was 52 nM; with `CCCc1ncc(C=C2C(=O)N(CCC)c3ccccc32)n1Cc1ccc(C(=O)O)cc1` [Example 3I, 4-[[5-[(1,2-dihydro-2-oxo-1-propyl-3H-indol-3-ylidenyl)methyl]-2-propyl-1H-imidazol-1-yl]methyl]benzoic acid], 140 nM. With `CCCCN1C(=O)/C(=C/c2c(-n3cccc3)nc(CCC)n2Cc2ccc(C(=O)OC)cc2)c2ccccc21` [Example 4, Benzoic acid, 4-[[5-[(1-butyl-2,3-dihydro-2-oxo-1H-indol-3-ylidene)methyl]-2=propyl-4=(1H-pyrrol-1-yl)-1H-imidazol-1-yl]methyl]-, methyl ester, (E)], the IC50 was 590 nM. With `CCCc1nc(-n2cccc2)c(/C=C2/C(=O)N(C)c3ccccc32)n1Cc1ccc(C(=O)OC)cc1` [Example 4A, Benzoic acid, 4-[[5-[(2,3-dihydro-1-methyl-2-oxo-1H-indol-3-ylidene)methyl]-2-propyl-4-(1H-pyrrol-1-yl)-1H-imidazol-1-yl]methyl]-, methyl ester, (E)], the IC50 worked out at 640 nM.

Compound `CCCc1nc(-n2cccc2)c(/C=C2/C(=O)N(CC(=O)OC)c3ccccc32)n1Cc1ccc(C(=O)OC)cc1` [Example 4B, 1H-Indole-1-acetic acid, 2,3-dihydro-3-[[1-[[4-(methoxycarbonyl)phenyl]methyl]-2-propyl-4-(1H-pyrrol-1-yl)-1H-imidazol-5-yl]methylene]-2-oxo-, methyl ester, (E)] had a concentration for half-maximal inhibition (IC50) of 95 nM. Regarding `CCCCc1ncc(C=C2C(=O)N(CCCC)c3ccccc32)n1Cc1ccc(C(=O)OC)cc1` [Example 4C, Benzoic acid, 4-[[2-butyl-5-[(1-butyl-2,3-dihydro-2-oxo-1H-indol-3-ylidene)methyl]-1H-imidazol-1-yl]methyl]-, methyl ester], the IC50 amounted to 358 nM.

For `CCCCc1ncc(/C=C2/C(=O)N(Cc3ccc(Cl)cc3)c3ccccc32)n1Cc1ccc(C(=O)O)cc1` [Example 4F, Benzoic acid, 4-[[2-butyl-5-[[1-[(4-chlorophenyl)methyl]-2,3-dihydro-2-oxo-1H-indol-3-ylidene]methyl]-1H-imidazol-1-yl]methyl]-, (E)], the IC50 stood at 256 nM. Turning to `CCCCc1ncc(C=C2C(=O)N(OCC(=O)OC)c3ccccc32)n1Cc1ccc(C(=O)OC)cc1` [Example 4G], the IC50 came out at 64 nM. With `CCCCc1ncc(C=C2C(=O)N(CC#N)c3ccccc32)n1Cc1ccc(C(=O)OC)cc1` [Example 4H, Benzoic acid, 4-[[2-butyl-5-[[1-(cyanomethyl)-2,3-dihydro-2-oxo-1H-indol-3-ylidene]methyl]-1H-imidazol-1-yl]methyl]-, methyl ester, (E)] the figure was 226 nM. The same measure for `CCCc1ncc(/C=C2\C(=O)N(CC(=O)OC)c3cccc(C)c32)n1Cc1ccc(C(=O)OC)cc1` [Example 4J, Methyl (Z)-2,3-dihydro-3-[[3-[[4-methoxycarbonylphenyl]methyl]-2-propyl-3H-imidazol-4-yl]methylene]-4-methyl-2-oxo-1H-indole-1-acetate]: 686 nM; for `CCCCc1ncc(C=C2C(=O)N(CCCC)c3ccccc32)n1Cc1ccc(C(=O)OC)cc1Cl` [Example 4K, Methyl 4-[[2-butyl-5-[(1-butyl-1,2-dihydro-2-oxo-3H-indol-3-yliden)methyl]-1H-imidazolyl]methyl]-3-chlorobenzoate]: 110 nM; for `CCCCc1ncc(C=C2C(=O)N(Cc3nn[nH]n3)c3ccccc32)n1Cc1ccc(C(=O)OC)cc1` [Example 5, Benzoic acid, 4-[[2-butyl-5-[[2,3-dihydro-2-oxo-1-(1H-tetrazol-5-ylmethyl)-1H-indol-3-ylidene]methyl]-1H-imidazol-1-yl]methyl]-, methyl ester, (E)]: 94 nM.

In turn, `CCCCc1ncc(C=C2C(=O)N(CC(=O)OC)c3ccccc32)n1Cc1ccc(-c2nn[nH]n2)cc1` [Example 6, 1H-Indole-1-acetic acid, 3-[[2-butyl-1-[[4-(1H-tetrazol-5-yl)phenyl]methyl]-1H-imidazol-5yl]methylene]-2,3-dihydro-2-oxo-, methyl ester] came in with an IC50 of 25 nM. The same measure for `CCCCc1ncc(C=C2C(=O)N(CC(=O)OCC)c3ccccc32)n1Cc1ccc(-c2nnn[nH]2)cc1` [Example 6A, 1H-Indole-1-acetic acid, 3-[[2-butyl-1-[[4-(1H-tetrazol-5-yl)phenyl]methyl]-1H-imidazol-5yl]methylene]-2,3-dihydro-2-oxo-, ethyl ester]: 12 nM; for `CCCCc1ncc(C=C2C(=O)N(CC(=O)O)c3ccccc32)n1Cc1ccc(-c2nnn[nH]2)cc1` [Example 7, 3-[[2-butyl-3-[[4-(1H-tetrazol-5-yl)phenyl]methyl]-3H-imidazol-4-yl]methylene]-2,3-dihydro-2-oxo-1H-indole-1-acetic acid]: 5.7 nM. Take `CCCc1ncc(/C=C2\C(=O)N(CC(=O)OC)C(=O)c3ccccc32)n1Cc1ccc(C(=O)OC)cc1` [Example 8, 2(1H)-Isoquinolineacetic acid, 3,4-dihydro-4-[[1-[[4-(methoxycarbonyl)phenyl]methyl]-2-propyl-1H-imidazol-5-yl]methylene]-1,3-dioxo-, methyl ester, (Z)]: the IC50 was 47 nM.

As a reminder, the IC50 is the midpoint of a concentration-inhibition curve. A high value points to weaker potency.
